Results reported in patent US12714691B2, “Method of treating triple-negative breast cancer” (THE UNITED STATES OF AMERICA, AS REPRESENTED BY THE …, priority 2018, dated 2026).

Assays:
NCI-60 cell lines = assay: NCI-60 compound activity (z score of GI50, sulforhodamine B total protein assay, DTP); type: cell-based; conditions: for Activity (Z score) against breast cancer cell lines: 4 of 5 tested breast cancer cell lines (MCF7, HS578T, BT549, T47D); for Anticancer activity compared with all available (~178) FDA-approved drugs: HS 578T and BT-549 cell lines, FIG. 7B; for Activity (Z score) pattern against NCI-60 cell lines: certain breast cancer, colorectal cancer and ovarian cancer cell lines, FIG. 6; for Activity (Z score) against ovarian cancer cell lines: four of seven ovarian cancer cell lines (OVCAR-3, OVCAR-4, OVCAR-8, NCI-ADR-RES); for Effectiveness compared with 13 approved breast cancer drugs: triple negative breast cancer cell lines HS 578T and BT-549 (two of three NCI-60 TNBC lines), FIG. 7A; for Activity (Z score) against colorectal cell lines: two of seven colorectal cell lines (COLO205 and HCC2998)
Experimental: (§1) To determine reproducibility across institutes and assay types, we tested a selected set of NCI-60-screened compounds for activity in the GDSC cell line panel (Table 1). Drug data reproducibility may be affected by potential sources of data divergence such as assay type and duration for drug treatment. Noting that the GDSC and the NCI/DTP used different assays to determine their IC50 values (Cell Titer Glo measurements of ATP at 72 hours post-treatment versus sulforhodamine B measurement of total protein at 48 hours post-treatment), we compared 19 drugs referenced by their NSCs (National Service Center identifiers) and associated with a range of mechanisms of action types. The drugs with the strongest correlations were oxyphenisatin acetate (Acetalax) (FIG. 5a, R=0.80, p=1.1×10^−10, N=43) and bisacodyl (FIG. 5b, R=0.84, p=9.0×10^−13, N=44). These FDA-approved laxatives lacked pre-existing data in the CTRP, CCLE and GDSC.
Acetalax and bisacodyl activities against a number of NCI-60 cell lines were obtained.
NCI-60 drug activity, molecular profiling, and annotation data was obtained from CellMiner (Database Version 2.1). […] Detailed information about CellMiner data preparation is publically available for example, in Reinhold, W. C. et al., Cancer Res. 72:3499-3511 (2012), Reinhold, W. C. et al., Cancer Res. 77:601-612 (2017), Abaan, O. D. et al., Cancer Res. 73:4372-4382 (2013), and Varma, S. et al., PloS One 9: e92047 (2014), as well as being documented within CellMiner.
COMPOUND ACTIVITY. Compound activity is indicated as a standardized, ‘z-score’ value derived from measurement of the cell line-specific 50% growth-inhibitory (GIS0) concentration using the sulforhodamine B total protein cytotoxicity assay generated by the Developmental Therapeutics Program (dtp.cancer.gov). In particular, for each compound, the mean and standard deviation of −log 10 [molar GI50] values over the NCI-60 lines are used to center and scale the data.

GDSC cell line panel = GDSC cell line panel drug activity (IC50, Cell Titer Glo measurement of ATP); type: cell-based; conditions: GDSC triple negative breast cancer lines (21); p<7E-10
Experimental: as §1
In this work, the drugs were assessed in a different institution using a different assay using 1,080 cell lines, including 21 triple negative breast cancers (FIG. 8A, B). […]
DETERMINATION OF PROSPECTIVE TRIPLE NEGATIVE BREAST CANCERS. Transcript expression levels of ERBB2, ESR1, ESR2 and PGR (HER2, estrogen receptor and progesterone receptor) were assessed by GDSC using the Affymetrix Human Genome U219 Array and accessed in CellMinerCDB. […]

| SMILES | Activity (Z score) against breast cancer cell lines (NCI-60 cell lines) | Anticancer activity compared with all available (~178) FDA-approved drugs (NCI-60 cell lines) | Activity (Z score) pattern against NCI-60 cell lines (NCI-60 cell lines) | Activity (Z score) against ovarian cancer cell lines (NCI-60 cell lines) | Effectiveness compared with 13 approved breast cancer drugs (NCI-60 cell lines) | Activity (Z score) against colorectal cell lines (NCI-60 cell lines) | Activity compared with the oncology drugs tested (GDSC cell line panel) |
| --- | --- | --- | --- | --- | --- | --- | --- |
| CC(=O)Oc1ccc(C(c2ccc(OC(C)=O)cc2)c2ccccn2)cc1 [Bisacodyl] | robust activity | superior anticancer activity | strong efficacy | robust activity | more effective | robust activity | more active than any of the oncology drugs |
| CC(=O)Oc1ccc(C2(c3ccc(OC(C)=O)cc3)C(=O)Nc3ccccc32)cc1 [Oxyphenisatin acetate (Acetalax), Oxyphenisatin acetate] | robust activity | superior anticancer activity | strong efficacy | robust activity | more effective | robust activity | more active than any of the oncology drugs |
